In paper PMC11191095, “QSAR Reveals Decreased Lipophilicity of Polar Residues Determines the Selectivity of Antimicrobial Peptide Activity” (ACS Omega, 2024):
Where a SMILES comes first, the peptide text is derived from it.

Legend:
Assay in all cases: microbe, parasite or virus in culture
P. aeruginosa NCTC 13437 = format: cell-based, Pseudomonas aeruginosa; conditions: P. aeruginosa NCTC 13437 (R)
How it was run: (§1)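 Peptides 128→2 μg/mL, 2-fold series; inoculum ~5 × 10^5 CFU/mL from overnight culture (OD600 0.01, mixed 1:1). MHB non-cation-adjusted for bacteria, RPMI 1640 + 2% glucose for fungi. 37 °C, 20 h, OD600. MIC50/MIC90 at 50%/90% inhibition; n ≥ 3.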

A. baumannii ATCC 17978 = format: cell-based, Acinetobacter baumannii; conditions: A. baumannii ATCC 17978 (S)
How it was run: as §1

A. baumannii AYE = format: cell-based, Acinetobacter baumannii; conditions: A. baumannii AYE (R)
How it was run: as §1

C. tropicalis NCPF 8760 = format: cell-based; conditions: C. tropicalis NCPF 8760
How it was run: as §1

[1] = test system: C. parapsilosis NCPF 3209; format: cell-based; conditions: C. parapsilosis NCPF 3209
How it was run: as §1

C. albicans NCPF 3281 = format: cell-based; conditions: C. albicans NCPF 3281
How it was run: as §1

C. krusei NCPF 3876 = format: cell-based; conditions: C. krusei NCPF 3876
How it was run: as §1

C. glabrata NCPF 8018 = format: cell-based; conditions: C. glabrata NCPF 8018
How it was run: as §1

C. auris TDG 1912 = format: cell-based, Candida auris; conditions: C. auris TDG 1912
How it was run: as §1

[2] = test system: S. aureus (MSSA) ATCC 9144; format: cell-based, Staphylococcus aureus; conditions: S. aureus (MSSA) ATCC 9144 (S)
How it was run: as §1

S. aureus (MRSA) 1199B = format: cell-based, Staphylococcus aureus; conditions: S. aureus (MRSA) 1199B (R)
How it was run: as §1

[3] = test system: S. aureus (MRSA) NCTC 13616; format: cell-based, Staphylococcus aureus; conditions: S. aureus (MRSA) NCTC 13616 (R)
How it was run: as §1

E. coli LEC001 = format: cell-based, Escherichia coli; conditions: E. coli LEC001 (R)
How it was run: as §1

E. coli NCTC 12923 = format: cell-based, Escherichia coli; conditions: E. coli NCTC 12923 (S)
How it was run: as §1

K. pneumoniae M6 = format: cell-based, Klebsiella pneumoniae; conditions: K. pneumoniae M6 (S)
How it was run: as §1

K. pneumoniae NCTC 13368 = format: cell-based, Klebsiella pneumoniae; conditions: K. pneumoniae NCTC 13368 (R)
How it was run: as §1

[4] = MHB, 37 °C, 20 h, OD600, min. three biological repeats
[5] = 50% growth inhibition, RPMI 1640 + 2% glucose, 37 °C, 20 h
[6] = 90% growth inhibition, RPMI 1640 + 2% glucose, 37 °C, 20 h
[7] = 50% growth inhibition, RPMI 1640 + 2% glucose, 37 °C, 20 h, OD600
[8] = 90% growth inhibition, RPMI 1640 + 2% glucose, 37 °C, 20 h, OD600
[9] = MHB, ~5×10^5 CFU/mL, 37 °C, 20 h, OD600, min. three biological repeats

CC[C@H](C)[C@H](NC(=O)CNC(=O)[C@@H](N)CCCCN)C(=O)N[C@@H](CCCNC(=N)N)C(=O)NCC(=O)N[C@@H](Cc1ccc(O)cc1)C(=O)N[C@@H](CCCCN)C(=O)NCC(=O)NCC(=O)N[C@@H](Cc1ccc(O)cc1)C(=O)N[C@@H](CS)C(=O)N[C@@H](CCCCN)C(=O)NCC(=O)N[C@@H](C)C(=O)N[C@@H](Cc1ccccc1)C(=O)N[C@@H](CCCCN)C(=O)N[C@@H](CCC(N)=O)C(=O)N[C@H](C(=O)N[C@@H](CS)C(=O)N[C@@H](CCCCN)C(=O)N[C@@H](CS)C(=O)N[C@@H](Cc1ccc(O)cc1)C(N)=O)[C@@H](C)O [Osa] (H-KGIRGYKGGYCKGAFKQTCKCY-NH2; N-terminus assumed)
> 128 µg/mL: Modal MIC (P. aeruginosa NCTC 13437; [4]) | Modal MIC (A. baumannii ATCC 17978; [4]) | Modal MIC (A. baumannii AYE; [4]) | Modal MIC50 (C. tropicalis NCPF 8760; [5]) | Modal MIC90 (C. tropicalis NCPF 8760; [6]) | Modal MIC50 [1, 5] | Modal MIC90 [1, 6] | Modal MIC50 (C. albicans NCPF 3281; [5]) | Modal MIC90 (C. albicans NCPF 3281; [6]) | Modal MIC50 (C. krusei NCPF 3876; [5]) | Modal MIC90 (C. krusei NCPF 3876; [6]) | Modal MIC50 (C. glabrata NCPF 8018; [5]) | Modal MIC90 (C. glabrata NCPF 8018; [6]) | Modal MIC50 (C. auris TDG 1912; [7]) | Modal MIC90 (C. auris TDG 1912; [8]) | Modal MIC [2, 4] | Modal MIC (S. aureus (MRSA) 1199B; [4]) | Modal MIC [3, 4] | Modal MIC (E. coli LEC001; [4]) | Modal MIC (E. coli NCTC 12923; [9]) | Modal MIC (K. pneumoniae M6; [4]) | Modal MIC (K. pneumoniae NCTC 13368; [4])
> 51.7 µM: Modal MIC (P. aeruginosa NCTC 13437; shown in µM) | Modal MIC (A. baumannii ATCC 17978; shown in µM) | Modal MIC (A. baumannii AYE; shown in µM) | Modal MIC50 (C. tropicalis NCPF 8760; shown in µM) | Modal MIC90 (C. tropicalis NCPF 8760; shown in µM) | Modal MIC50 ([1]; shown in µM) | Modal MIC90 ([1]; shown in µM) | Modal MIC50 (C. albicans NCPF 3281; shown in µM) | Modal MIC90 (C. albicans NCPF 3281; shown in µM) | Modal MIC50 (C. krusei NCPF 3876; shown in µM) | Modal MIC90 (C. krusei NCPF 3876; shown in µM) | Modal MIC50 (C. glabrata NCPF 8018; shown in µM) | Modal MIC90 (C. glabrata NCPF 8018; shown in µM) | Modal MIC50 (C. auris TDG 1912; shown in µM) | Modal MIC90 (C. auris TDG 1912; shown in µM) | Modal MIC ([2]; shown in µM) | Modal MIC (S. aureus (MRSA) 1199B; shown in µM) | Modal MIC ([3]; shown in µM) | Modal MIC (E. coli LEC001; shown in µM) | Modal MIC (E. coli NCTC 12923; shown in µM) | Modal MIC (K. pneumoniae M6; shown in µM) | Modal MIC (K. pneumoniae NCTC 13368; shown in µM)

CC(C)C[C@H](NC(=O)[C@H](CCCCN)NC(=O)[C@H](CO)NC(=O)[C@H](CCCCN)NC(=O)[C@@H](N)Cc1c[nH]c2ccccc12)C(=O)N[C@@H](C)C(=O)N[C@@H](CCCCN)C(=O)N[C@@H](CCCCN)C(N)=O [PS-PB-8a] (H-WKSKLAKK-NH2)
> 127.2 µM: Modal MIC (P. aeruginosa NCTC 13437; shown in µM) | Modal MIC (A. baumannii ATCC 17978; shown in µM) | Modal MIC (A. baumannii AYE; shown in µM) | Modal MIC50 (C. tropicalis NCPF 8760; shown in µM) | Modal MIC90 (C. tropicalis NCPF 8760; shown in µM) | Modal MIC50 ([1]; shown in µM) | Modal MIC90 ([1]; shown in µM) | Modal MIC50 (C. albicans NCPF 3281; shown in µM) | Modal MIC90 (C. albicans NCPF 3281; shown in µM) | Modal MIC50 (C. krusei NCPF 3876; shown in µM) | Modal MIC90 (C. krusei NCPF 3876; shown in µM) | Modal MIC50 (C. glabrata NCPF 8018; shown in µM) | Modal MIC90 (C. glabrata NCPF 8018; shown in µM) | Modal MIC50 (C. auris TDG 1912; shown in µM) | Modal MIC90 (C. auris TDG 1912; shown in µM) | Modal MIC ([2]; shown in µM) | Modal MIC (S. aureus (MRSA) 1199B; shown in µM) | Modal MIC ([3]; shown in µM) | Modal MIC (E. coli LEC001; shown in µM) | Modal MIC (E. coli NCTC 12923; shown in µM) | Modal MIC (K. pneumoniae M6; shown in µM) | Modal MIC (K. pneumoniae NCTC 13368; shown in µM)
> 128 µg/mL: Modal MIC (P. aeruginosa NCTC 13437; [4]) | Modal MIC (A. baumannii ATCC 17978; [4]) | Modal MIC (A. baumannii AYE; [4]) | Modal MIC50 (C. tropicalis NCPF 8760; [5]) | Modal MIC90 (C. tropicalis NCPF 8760; [6]) | Modal MIC50 [1, 5] | Modal MIC90 [1, 6] | Modal MIC50 (C. albicans NCPF 3281; [5]) | Modal MIC90 (C. albicans NCPF 3281; [6]) | Modal MIC50 (C. krusei NCPF 3876; [5]) | Modal MIC90 (C. krusei NCPF 3876; [6]) | Modal MIC50 (C. glabrata NCPF 8018; [5]) | Modal MIC90 (C. glabrata NCPF 8018; [6]) | Modal MIC50 (C. auris TDG 1912; [7]) | Modal MIC90 (C. auris TDG 1912; [8]) | Modal MIC [2, 4] | Modal MIC (S. aureus (MRSA) 1199B; [4]) | Modal MIC [3, 4] | Modal MIC (E. coli LEC001; [4]) | Modal MIC (E. coli NCTC 12923; [9]) | Modal MIC (K. pneumoniae M6; [4]) | Modal MIC (K. pneumoniae NCTC 13368; [4])
